{"source": "patent US6784283B2", "about": "“Peptide antibiotics” (The University of British Columbia, priority 2000, dated 2004)", "key": {"[1]": {"tested_on": "methicillin-resistant Staphylococcus aureus", "experiment": "agar dilution antimicrobial assay (MIC)", "assay_type": "cell-based", "procedure": "(§1) A solution of Bogorol A was prepared by dissolving 3 mg of e compound in 300 μL of dimethylsulfoxide (DMSO). Serial two-fold dilutions were prepared in DMSO, and 50 μL of each dilution was mixed with 5 mL of melted Mueller-Hinton agar to achieve a final Bogorol A concentration range of 200 to 0.48 μg/ml. After the agar solidified, standardized suspensions of the target organisms were inoculated onto the surface of the agar using a multipoint inoculator. The standardized suspensions were prepared in tryptic soy broth adjusted to a 1.0 McFarland turbidity standard. The plates were incubated over night at 37° C. Activity of Bogorol A was indicated by a lack of growth of any target organism at its point of inoculation."}, "Berkholderia cepacia": {"tested_on": "Berkholderia cepacia", "conditions": "other target organisms tested (Berkholderia cepacia); agar dilution", "procedure": "as §1"}, "Candida aibicans": {"tested_on": "Candida aibicans", "conditions": "other target organisms tested (Candida aibicans); agar dilution", "procedure": "as §1"}, "[2]": {"tested_on": "Drug Resistant Pseudomonas aeruginosa", "conditions": "other target organisms tested (Drug Resistant Pseudomonas aeruginosa); agar dilution", "procedure": "as §1"}, "Escherichia coli": {"tested_on": "Escherichia coli", "conditions": "agar dilution", "procedure": "as §1"}, "[3]": {"tested_on": "Stenotrophomonas maltophilia", "conditions": "agar dilution", "procedure": "as §1"}, "[4]": {"tested_on": "vancomycin-resistant Enterococcus faecalis", "conditions": "agar dilution", "procedure": "as §1"}}, "note": "Starred links: 1 amine or outer side, 2 acyl side, 3 side chain; linkers in the order of their positions; H or OH if unused. Non-standard residues stand in square brackets, D forms with d. Residues, ends and D or L forms follow the SMILES beside them. *: point of attachment. Pentanoyl(2S-OH,3S-Me) = CC[C@H](C)[C@H](O)C(=O)*; X1 = C/C=C(/N[*:1])C(=O)[*:2]; dOrn = NCCC[C@@H](N)C(=O)O; Valol = CC(C)[C@@H](CO)N*", "data": [{"smiles": "C/C=C(/NC(=O)[C@@H](O)[C@@H](C)CC)C(=O)N[C@@H](CC(C)C)C(=O)N[C@H](CCCN)C(=O)N[C@H](C(=O)N[C@H](C(=O)N[C@H](C(=O)N[C@H](CCCCN)C(=O)N[C@H](C(=O)N[C@@H](CC(C)C)C(=O)N[C@@H](CCCCN)C(=O)N[C@H](Cc1ccc(O)cc1)C(=O)N[C@H](CC(C)C)C(=O)N[C@H](CO)C(C)C)C(C)C)C(C)C)C(C)C)[C@@H](C)CC", "note": "[Bogorol A] ({Pentanoyl(2S-OH,3S-Me)}-[X1]L[dOrn]IVV[dK]VLK[dY][dL]-Valol)", "values": [{"measurement": "antimicrobial activity (in words)", "setting": "[1]", "value": "active"}, {"measurement": "antimicrobial activity (in words)", "setting": "Berkholderia cepacia", "value": "essentially inactive"}, {"measurement": "antimicrobial activity (in words)", "setting": "Candida aibicans", "value": "essentially inactive"}, {"measurement": "antimicrobial activity (in words)", "setting": "[2]", "value": "essentially inactive"}, {"measurement": "antimicrobial activity (in words)", "setting": "Escherichia coli", "value": "moderately active"}, {"measurement": "antimicrobial activity (in words)", "setting": "[3]", "value": "moderately active"}, {"measurement": "antimicrobial activity (in words)", "setting": "[4]", "value": "active"}]}]}
